These results are taken from patent US10093678B2, “Azaspiro derivatives as TRPM8 antagonists” (RaQualia Pharma Inc., priority 2014, dated 2018).

Molecules are shown by their SMILES.

T1 sequence (Q7Z2W7 whole entry): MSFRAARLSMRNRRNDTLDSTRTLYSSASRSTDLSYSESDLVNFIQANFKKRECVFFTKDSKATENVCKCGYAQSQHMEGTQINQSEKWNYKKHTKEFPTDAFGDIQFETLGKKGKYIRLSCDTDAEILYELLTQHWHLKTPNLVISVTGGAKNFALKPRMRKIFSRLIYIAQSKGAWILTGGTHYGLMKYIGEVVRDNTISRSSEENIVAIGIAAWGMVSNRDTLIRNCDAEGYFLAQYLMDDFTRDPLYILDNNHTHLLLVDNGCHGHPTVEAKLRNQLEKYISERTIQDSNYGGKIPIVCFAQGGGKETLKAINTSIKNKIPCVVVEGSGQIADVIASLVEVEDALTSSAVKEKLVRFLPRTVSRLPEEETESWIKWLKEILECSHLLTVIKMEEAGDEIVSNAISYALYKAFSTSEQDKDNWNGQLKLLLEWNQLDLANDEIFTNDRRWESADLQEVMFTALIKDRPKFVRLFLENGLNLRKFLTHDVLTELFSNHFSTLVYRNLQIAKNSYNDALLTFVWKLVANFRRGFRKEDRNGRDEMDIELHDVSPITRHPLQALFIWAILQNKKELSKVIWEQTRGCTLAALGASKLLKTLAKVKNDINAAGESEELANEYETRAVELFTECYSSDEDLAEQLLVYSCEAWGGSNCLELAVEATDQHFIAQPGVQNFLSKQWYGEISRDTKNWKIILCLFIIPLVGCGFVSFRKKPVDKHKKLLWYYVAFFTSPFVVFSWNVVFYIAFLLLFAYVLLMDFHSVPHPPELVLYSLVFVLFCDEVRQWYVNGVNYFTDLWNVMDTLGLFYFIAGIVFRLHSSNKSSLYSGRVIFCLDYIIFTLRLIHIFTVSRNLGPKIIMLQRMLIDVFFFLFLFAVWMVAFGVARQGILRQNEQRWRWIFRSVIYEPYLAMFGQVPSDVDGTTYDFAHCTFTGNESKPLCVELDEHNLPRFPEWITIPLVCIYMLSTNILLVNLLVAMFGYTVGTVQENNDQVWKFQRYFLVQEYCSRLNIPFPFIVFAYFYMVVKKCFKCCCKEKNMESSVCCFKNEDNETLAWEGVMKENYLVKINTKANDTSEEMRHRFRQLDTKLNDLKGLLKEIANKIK

The assay concerns the target T1, human TRPM8 (Homo sapiens, UniProt Q7Z2W7).
T1 construct: expressed in transfected cells; host or cells: HEK293
The experiment in a line: Menthol-induced Ca2+ influx in HEK293 cells stably expressing human TRPM8. As to conditions: 30 microM menthol-induced Ca2+ influx, read-out: IC50 against TRPM8. In kind it is cell-based. In a few lines:
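HEK293 cells stably expressing human TRPM8 were loaded with Fluo4-AM for 1 h at room temperature, preincubated 5 min with compound, then challenged with 30 microM menthol. Calcium rise was read by FDSS imaging. IC50 came from 11-point curves using duplicate-well means.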
Take `O=C(CN1C(=O)NC2(CCC(F)(F)CC2)C1=O)c1ccc(-n2c(=O)[nH]c3cccnc32)cc1` [Example 23-1, 8,8-difluoro-3-(2-oxo-2-(4-(2-oxo-1H-imidazo[4,5-b]pyridin-3(2H)-yl)phenyl)ethyl)-1,3-diazaspiro[4.5]decane-2,4-dione]: the IC50 – broadly, the midpoint of a concentration-inhibition curve – was below 0.1 µM. As for `Cc1c(C(=O)CN2C(=O)NC3(CCC(F)(F)CC3)C2=O)cn(C)c1-c1ccccc1CO` [Example 16-34], the figure is below 0.5 µM; as for `Cc1ccnnc1-c1ccc(C(=O)CN2C(=O)NC3(CCCCCC3)C2=O)cc1` [Example 5-26], below 0.1 µM. As for `Cc1nc(C(=O)CN2C(=O)NC3(CCC(F)(F)CC3)C2=O)sc1-c1cncc(F)c1` [Example 18-9], the IC50 is below 0.1 µM. On to `Cc1cccnc1Oc1ccc(C(=O)CN2C(=O)NC3(CCC(F)(F)CC3)C2=O)cc1` [Example 21-3], for which the half-maximal inhibitory concentration (IC50) was below 0.5 µM. As to `Cc1cccc(-n2c(C)nc(C(=O)CN3C(=O)NC4(CCCCC4)C3=O)c2C)c1` [Example 2-13], the IC50 is below 0.1 µM.

For the compound `Cc1ccccc1-c1ccc(C(=O)CN2C(=O)NC3(CCCCC3)C2=O)cc1C` [Example 13-6], the IC50 was below 0.1 µM.

For `Cc1cc(C(=O)CN2C(=O)NC3(CCC(F)(F)CC3)C2=O)c(C)n1-c1ccccc1` [Example 3-4], the IC50 is below 0.1 µM. As for `Cc1ccnnc1-c1ccc(C(=O)CN2C(=O)NC3(CCC(F)(F)CC3)C2=O)c(F)c1` [Example 8-7], the figure is below 0.1 µM. As for `N#Cc1ccnnc1-c1ccc(C(=O)CN2C(=O)NC3(CCC(F)(F)CC3)C2=O)cc1` [Example 6-43], the figure is below 0.1 µM; as for `O=C(CN1C(=O)NC2(CCC(F)(F)CC2)C1=O)c1ccc(-c2cncc3ccccc23)cc1` [Example 13-37], below 0.01 µM; as for `NC(=O)c1cccc(-c2ccc(C(=O)CN3C(=O)NC4(CCC(F)(F)CC4)C3=O)cc2Cl)c1` [Example 13-28], below 0.1 µM.

In the case of `Cc1cccc(-n2c(C)nc(C(=O)CN3C(=O)CC4(CCC(F)(F)CC4)C3=O)c2C)c1` [Example 2-8], the IC50 is below 0.5 µM.

Regarding `Cn1c(=O)n(-c2ccc(C(=O)CN3C(=O)NC4(CCC(F)(F)CC4)C3=O)cc2)c2ccccc21` [Example 19-23], the half-maximal inhibitory concentration (IC50) is below 0.1 µM. As for `COc1ncccc1-c1ccc(C(=O)CN2C(=O)NC3(CCC(F)(F)CC3)C2=O)cc1` [Example 13-45], the figure is below 0.1 µM; as for `COc1cncc(-c2ccc(C(=O)CN3C(=O)NC4(CCC(F)(F)CC4)C3=O)cc2)c1` [Example 6-90], below 0.5 µM; as for `Cc1sc(C(=O)CN2C(=O)NC3(CCC(F)(F)CC3)C2=O)c(C)c1-c1ccccc1` [Example 15-8], below 0.5 µM. On to `O=C(CN1CC2(CCC(F)(F)CC2)OC1=O)c1ccc(-c2ccccc2CO)cc1` [Example 13-55], for which the IC50 was below 0.1 µM. As to `O=C(CN1C(=O)NC2(CCC(F)(F)CC2)C1=O)c1ccc(-n2ccc3ccccc32)cc1` [Example 19-18], the IC50 is below 0.1 µM.

Regarding `O=C(CN1C(=O)NC2(CCC(F)(F)CC2)C1=O)c1ccc(-c2cccc3[nH]ncc23)nc1` [Example 9-14], the IC50 is below 0.1 µM. Turning to `O=C(CN1C(=O)NC2(CCC(F)(F)CC2)C1=O)c1ccc(-c2cnccn2)cc1` [Example 6-100], the IC50 is below 0.5 µM. In the case of `Cn1c(C(=O)CN2C(=O)NC3(CCC(F)(F)CC3)C2=O)nc(C2CC2)c1-c1ccccc1` [Example 17-4], the concentration for half-maximal inhibition (IC50) was below 0.1 µM. For `Cc1ncncc1-c1ccc(C(=O)CN2C(=O)NC3(CCC(F)(F)CC3)C2=O)cc1` [Example 6-34] the value was below 0.1 µM. For `Cc1nc(C(=O)CN2C(=O)NC3(CCC(F)(F)CC3)C2=O)sc1-c1cc(F)cc(F)c1` [Example 18-11], the IC50 was below 0.1 µM. As for `O=C(CN1C(=O)NC2(CCC(F)(F)CC2)C1=O)c1ccc(-c2n[nH]c3ccccc23)cc1` [Example 6-32], the figure is below 0.1 µM; as for `Cc1cc(C(=O)CN2C(=O)NC3(CCC(F)(F)CC3)C2=O)ccc1-c1cccc(C(N)=O)c1` [Example 13-13], below 0.1 µM.
